Data: ChEMBL document CHEMBL4371026, “Prodrugs of the cancer cell selective anti-cancer agent (Z)-2-(1H-indol-3-yl)-3-(isoquinolin-5-yl)acrylonitrile (A131) are orally efficacious in a mouse model of resistant colon cancer” (Bioorg Med Chem Lett, 2019)
Active and inactive are the calls of the source. The rule behind the calls is not given here.

How the values were obtained:
BJ [1] = test: Induction of mitosis in transformed human BJ cells assessed as increase in pH3 Ser10 expression at 5 uM after 24 hrs by Western blot analysis relative to control; format: functional
BJ [2] = test: Induction of autophagy in transformed human BJ cells assessed as increase in LC3-2 to LC3-1 ratio at 5 uM after 24 hrs by Western blot analysis relative to control; format: functional
[3] = Stability in acidic pH assessed as compound hydrolysis; format: physicochemical
[4] = Prodrug conversion in pH 7.4 10% FBS assessed as formation of A131 measured at 3 hrs by LC-MS/MS analysis relative to parent compound; format: ADME; settings: cattle, pH 7.4, 3 h
[5] = Prodrug conversion in human plasma assessed as formation of A131 by measuring apparent half life; format: ADME, cell-free
[6] = Prodrug conversion in pH 7.4 10% FBS assessed as formation of A131 measured at 2 hrs by LC-MS/MS analysis relative to parent compound; format: ADME; settings: cattle, pH 7.4, 2 h
[7] = Half life in simplified simulated gastric fluid; format: ADME
[8] = Prodrug conversion in pH 7.4 10% FBS assessed as formation of A131 measured at 6 hrs by LC-MS/MS analysis relative to parent compound; format: ADME; settings: cattle, pH 7.4, 6 h
[9] = Stability in human plasma assessed as compound hydrolysis measured within 15 mins; format: ADME, cell-free; settings: read-out: Drug degradation
[10] = Half life in simulated gastric fluid TS; format: ADME
[11] = Stability in simplified simulated gastric fluid assessed as parent compound remaining at 24 hrs; format: ADME; settings: read-out: Stability
[12] = Prodrug conversion in pH 7.4 10% FBS assessed as formation of A131 by measuring apparent half life; format: ADME; settings: cattle
[13] = Prodrug conversion in mouse plasma assessed as formation of A131 by measuring apparent half life; format: ADME, cell-free
[14] = Prodrug conversion in pH 7.4 phosphate buffer saline assessed as formation of A131 by measuring apparent half life; format: ADME
[15] = Prodrug conversion in pH 7.4 10% FBS assessed as formation of A131 measured at 1 hr by LC-MS/MS analysis relative to parent compound; format: ADME; settings: cattle, pH 7.4, 1 h
[16] = Stability in simulated gastric fluid TS assessed as parent compound remaining at 24 hrs; format: ADME; settings: read-out: Stability
HCT-15 [17] = test: Anticancer activity against paclitaxel-resistant human HCT15 cells xenografted in BALB/c athymic mouse assessed as tumor growth inhibition at 20 mg/kg, ip administered twice a day for 12 days; format: functional, organism-based
HCT-15 [18] = test: Anticancer activity against paclitaxel-resistant human HCT15 cells xenografted in BALB/c athymic mouse assessed as tumor growth inhibition at 40 mg/kg, ip administered twice a day for 12 days; format: functional, organism-based
HCT-15 [19] = test: Anticancer activity against paclitaxel-resistant human HCT15 cells xenografted in BALB/c athymic mouse assessed as cell death at 40 mg/kg, ip or 80 mg/kg, po administered twice a day for 12 days by TUNEL staining based assay; format: functional, organism-based
HCT-15 [20] = test: Anticancer activity against paclitaxel-resistant human HCT15 cells xenografted in BALB/c athymic mouse assessed as formation of misaligned chromosomes with multipolar spindles at 40 mg/kg, ip or 80 mg/kg, po administered twice a day for 12 days by immunohistochemical analysis; format: functional, organism-based

CC(C)(C)OC(=O)NCCC(=O)n1cc(/C(C#N)=C/c2cccc3cnccc23)c2ccccc21
fold change (FC) (BJ [1]): 4.8 | fold change (FC) (BJ [2]): 3.9

COCCOCC(=O)n1cc(/C(C#N)=C/c2cccc3cnccc23)c2ccccc21
fold change (FC) (BJ [1]): 12.8 | fold change (FC) (BJ [2]): 4.1

N#C/C(=C\c1cccc2cnccc12)c1cn(C(=O)C2CCNCC2)c2ccccc12
Stability [3]: Stable | fold change (FC) (BJ [1]): 10.1 | fold change (FC) [4]: 14.48 | t1/2(app) [5]: 4.2 min | fold change (FC) [6]: 13.17 | half-life [7]: > 24 h | fold change (FC) [8]: 16.5 | metabolised at 0.25 h [9]: > 90% | half-life [10]: > 24 h | remaining at 24 h [11]: 75% | t1/2(app) [12]: 1.14 h | fold change (FC) (BJ [2]): 7.3 | t1/2(app) [13]: 0.208 h | t1/2(app) [14]: 2.58 h | fold change (FC) [15]: 7.03 | remaining at 24 h [16]: 75%

N#C/C(=C\c1cccc2cnccc12)c1c[nH]c2ccccc12 [listing 1 of 2 here]
fold change (FC) (BJ [1]): 7.3 | fold change (FC) (BJ [2]): 5

CN1CCN(CC(=O)n2cc(/C(C#N)=C/c3cccc4cnccc34)c3ccccc32)CC1 [listing 1 of 2 here]
Stability [3]: Stable | fold change (FC) (BJ [1]): 11.8 | fold change (FC) [4]: 8.39 | t1/2(app) [5]: 3.42 min | fold change (FC) [6]: 7.51 | half-life [7]: 24 h | fold change (FC) [8]: 8.84 | metabolised at 0.25 h [9]: > 90% | half-life [10]: 24 h | remaining at 24 h [11]: 50% | t1/2(app) [12]: 0.9 h | fold change (FC) (BJ [2]): 5 | t1/2(app) [13]: 0.088 h | t1/2(app) [14]: 5.3 h | fold change (FC) [15]: 4.68 | remaining at 24 h [16]: 50%

N#C/C(=C\c1cccc2cnccc12)c1c[nH]c2ccccc12 [listing 2 of 2 here]
TGI (HCT-15 [17]): Active

CCN(CC)C(=O)n1cc(/C(C#N)=C/c2cccc3cnccc23)c2ccccc21
fold change (FC) (BJ [1]): 0.6 | fold change (FC) (BJ [2]): 0.9

CN1CCN(CC(=O)n2cc(/C(C#N)=C/c3cccc4cnccc34)c3ccccc32)CC1 [listing 2 of 2 here]
TGI (HCT-15 [18]): Active | Activity (HCT-15 [19]): Active | Activity (HCT-15 [20]): Active
